Assay results: patent US20090030024A1, “THIAZOLES AS FUNGICIDES” (priority 2005, published 2009)
Marks after values point to notes of the source that are not given here.

Experiment: logP determination by retention times (calibration with alkan-2-ones)
Conditions: not given
For `Cc1cc(Nc2nccc(-c3sc(N)nc3C)n2)ccc1F` [Example 207, 4-(2-amino-4-methyl-1,3-thiazol-5-yl)-N-(4-fluoro-3-methylphenyl)pyrimidine-2-amine], the chromatographic logP was 1.68. In the case of `Cc1nc(N)sc1-c1ccnc(Nc2ccc(F)cc2)n1` [Example 208, 4-(2-amino-4-methyl-1,3-thiazol-5-yl)-N-(4-fluorophenyl)pyrimidine-2-amine], the chromatographic logP was 1.56. `Cc1nc(N)sc1-c1ccnc(Nc2cccc(C(F)(F)F)c2)n1` [Example 209, 4-(2-amino-4-methyl-1,3-thiazol-5-yl)-N-[3-(trifluoromethyl)phenyl]pyrimidine-2-amine] gave a chromatographic logP of 1.97. Compound `COc1cc(Nc2nccc(-c3sc(C4CCCCC4)nc3C)n2)cc(OC)c1OC` [Example 215, 4-(2-cyclohexyl-4-methyl-1,3-thiazol-5-yl)-N-(3,4,5-trimethoxyphenyl)pyrimidine-2-amine] has a chromatographic logP of 3.97. In the case of `Cc1nc(C2CCCCC2)sc1-c1ccnc(Nc2cccc([N+](=O)[O-])c2)n1` [Example 216, 4-(2-cyclohexyl-4-methyl-1,3-thiazol-5-yl)-N-(3-nitrophenyl)pyrimidine-2-amine], the chromatographic logP was 4.63. With `COc1ccc(Nc2nccc(-c3sc(C4CCCCC4)nc3C)n2)cn1` [Example 217, 4-(2-cyclohexyl-4-methyl-1,3-thiazol-5-yl)-N-(6-methoxypyridin-3-yl)pyrimidine-2-amine] the chromatographic logP was 3.86. For `Cc1nc(C2CCCCC2)sc1-c1ccnc(Nc2ccc(C(F)(F)F)cc2)n1` [Example 218, 4-(2-cyclohexyl-4-methyl-1,3-thiazol-5-yl)-N-[4-(trifluoromethyl)phenyl]pyrimidine-2-amine], the chromatographic logP was 5.62. `Cc1nc(C2CCCCC2)sc1-c1ccnc(Nc2ccccc2)n1` [Example 219, 4-(2-cyclohexyl-4-methyl-1,3-thiazol-5-yl)-N-phenylpyrimidine-2-amine] gave a chromatographic logP of 4.65. With `Cc1nc(C2CC2)sc1-c1ccnc(Nc2ccc3c(c2)OCCO3)n1` [Example 220, 4-(2-cyclopropyl-4-methyl-1,3-thiazol-5-yl)-N-(2,3-dihydro-1,4-benzodioxin-6-yl)pyrimidine-2-amine] the chromatographic logP was 2.91. Work on `COc1ccc(OC)c(Nc2nccc(-c3sc(C4CC4)nc3C)n2)c1` [Example 221, 4-(2-cyclopropyl-4-methyl-1,3-thiazol-5-yl)-N-(2,5-dimethoxyphenyl)pyrimidine-2-amine] yielded a chromatographic logP of 3.71. For `COc1ccc(Nc2nccc(-c3sc(C4CC4)nc3C)n2)cc1OC` [Example 223, 4-(2-cyclopropyl-4-methyl-1,3-thiazol-5-yl)-N-(3,4-dimethoxyphenyl)pyrimidine-2-amine], the chromatographic logP was 2.6. `COc1cccc(Nc2nccc(-c3sc(C4CC4)nc3C)n2)c1` [Example 224, 4-(2-cyclopropyl-4-methyl-1,3-thiazol-5-yl)-N-(3-methoxyphenyl)pyrimidine-2-amine] gave a chromatographic logP of 3.28. `Cc1nc(C2CC2)sc1-c1ccnc(Nc2cccc([N+](=O)[O-])c2)n1` [Example 225, 4-(2-cyclopropyl-4-methyl-1,3-thiazol-5-yl)-N-(3-nitrophenyl)pyrimidine-2-amine] showed a chromatographic logP of 3.29. Compound `Cc1cc(Nc2nccc(-c3sc(C4CC4)nc3C)n2)ccc1F` [Example 226, 4-(2-cyclopropyl-4-methyl-1,3-thiazol-5-yl)-N-(4-fluoro-3-methylphenyl)pyrimidine-2-amine] has a chromatographic logP of 3.71. For `Cc1nc(C2CC2)sc1-c1ccnc(Nc2ccc(F)cc2)n1` [Example 227, 4-(2-cyclopropyl-4-methyl-1,3-thiazol-5-yl)-N-(4-fluorophenyl)pyrimidine-2-amine], the chromatographic logP was 3.31. With `COc1ccc(Nc2nccc(-c3sc(C4CC4)nc3C)n2)cn1` [Example 228, 4-(2-cyclopropyl-4-methyl-1,3-thiazol-5-yl)-N-(6-methoxypyridin-3-yl)pyrimidine-2-amine] the chromatographic logP was 2.53. For `Cc1nc(C2CC2)sc1-c1ccnc(Nc2cccc(C(F)(F)F)c2)n1` [Example 229, 4-(2-cyclopropyl-4-methyl-1,3-thiazol-5-yl)-N-[3-(trifluoromethyl)phenyl]pyrimidine-2-amine], the chromatographic logP was 4.04. Compound `Cc1nc(C2CC2)sc1-c1ccnc(Nc2ccc(C(F)(F)F)cc2)n1` [Example 230, 4-(2-cyclopropyl-4-methyl-1,3-thiazol-5-yl)-N-[4-(trifluoromethyl)phenyl]pyrimidine-2-amine] has a chromatographic logP of 4.2. Compound `Cc1nc(C2CC2)sc1-c1ccnc(Nc2ccccc2)n1` [Example 231, 4-(2-cyclopropyl-4-methyl-1,3-thiazol-5-yl)-N-phenylpyrimidine-2-amine] has a chromatographic logP of 3.26. In the case of `CCc1nc(C)c(-c2ccnc(Nc3cccc(OC)c3)n2)s1` [Example 236, 4-(2-ethyl-4-methyl-1,3-thiazol-5-yl)-N-(3-methoxyphenyl)pyrimidine-2-amine], the chromatographic logP was 3. Work on `CCc1nc(C)c(-c2ccnc(Nc3cccc([N+](=O)[O-])c3)n2)s1` [Example 237, 4-(2-ethyl-4-methyl-1,3-thiazol-5-yl)-N-(3-nitrophenyl)pyrimidine-2-amine] yielded a chromatographic logP of 3.14. For `CCc1nc(C)c(-c2ccnc(Nc3cccc(C(F)(F)F)c3)n2)s1` [Example 241, 4-(2-ethyl-4-methyl-1,3-thiazol-5-yl)-N-[3-(trifluoromethyl)phenyl]pyrimidine-2-amine], the chromatographic logP was 3.85. Compound `COc1cccc(Nc2nccc(-c3sc(C(C)C)nc3C)n2)c1` [Example 245, 4-(2-isopropyl-4-methyl-1,3-thiazol-5-yl)-N-(3-methoxyphenyl)pyrimidine-2-amine] has a chromatographic logP of 3.5. Compound `Cc1nc(C(C)C)sc1-c1ccnc(Nc2cccc([N+](=O)[O-])c2)n1` [Example 246, 4-(2-isopropyl-4-methyl-1,3-thiazol-5-yl)-N-(3-nitrophenyl)pyrimidine-2-amine] has a chromatographic logP of 3.55. `Cc1nc(C(C)C)sc1-c1ccnc(Nc2cccc(C(F)(F)F)c2)n1` [Example 248, 4-(2-isopropyl-4-methyl-1,3-thiazol-5-yl)-N-[3-(trifluoromethyl)phenyl]pyrimidine-2-amine] gave a chromatographic logP of 4.3. `Cc1nc(C(C)C)sc1-c1ccnc(Nc2ccc(N3CCN(C)CC3)cc2)n1` [Example 249, 4-(2-isopropyl-4-methyl-1,3-thiazol-5-yl)-N-[4-(4-methylpiperazin-1-yl)phenyl]pyrimidine-2-amine] gave a chromatographic logP of 1.71. `Cc1ncsc1-c1ccnc(Nc2cccc(C(F)(F)F)c2)n1` [Example 267, 4-(4-methyl-1,3-thiazol-5-yl)-N-[3-(trifluoromethyl)phenyl]pyrimidine-2-amine] gave a chromatographic logP of 3.14. Work on `COCC(C)Nc1nc(C)c(-c2ccnc(Nc3ccc(O)cc3)n2)s1` (stereo not drawn) [Example 284, 4-[(4-{2-[(2-methoxy-1-methylethyl)amino]-4-methyl-1,3-thiazol-5-yl}pyrimidin-2-yl)amino]phenol] yielded a chromatographic logP of 1.4. With `COCc1nc(C)c(-c2ccnc(Nc3cc(OC)c(OC)c(OC)c3)n2)s1` [Example 295, 4-[2-(methoxymethyl)-4-methyl-1,3-thiazol-5-yl]-N-(3,4,5-trimethoxyphenyl)pyrimidine-2-amine] the chromatographic logP was 2.36. For `COCc1nc(C)c(-c2ccnc(Nc3cccc(OC)c3)n2)s1` [Example 296, 4-[2-(methoxymethyl)-4-methyl-1,3-thiazol-5-yl]-N-(3-methoxyphenyl)pyrimidine-2-amine], the chromatographic logP was 2.67. With `COCc1nc(C)c(-c2ccnc(Nc3ccc(OC)nc3)n2)s1` [Example 298, 4-[2-(methoxymethyl)-4-methyl-1,3-thiazol-5-yl]-N-(6-methoxypyridin-3-yl)pyrimidine-2-amine] the chromatographic logP was 2.13. `COCc1nc(C)c(-c2ccnc(Nc3cccc(C(F)(F)F)c3)n2)s1` [Example 299, 4-[2-(methoxymethyl)-4-methyl-1,3-thiazol-5-yl]-N-[3-(trifluoromethyl)phenyl]pyrimidine-2-amine] gave a chromatographic logP of 3.41. In the case of `COCc1nc(C)c(-c2ccnc(Nc3ccc(C(F)(F)F)cc3)n2)s1` [Example 300, 4-[2-(methoxymethyl)-4-methyl-1,3-thiazol-5-yl]-N-[4-(trifluoromethyl)phenyl]pyrimidine-2-amine], the chromatographic logP was 3.59. For `COCc1nc(C)c(-c2ccnc(Nc3ccccc3)n2)s1` [Example 301, 4-[2-(methoxymethyl)-4-methyl-1,3-thiazol-5-yl]-N-phenylpyrimidine-2-amine], the chromatographic logP was 3.01. `COc1cc(Nc2nccc(-c3sc(C)nc3C(F)(F)F)n2)cc(OC)c1OC` [Example 310, 4-[2-methyl-4-(trifluoromethyl)-1,3-thiazol-5-yl]-N-(3,4,5-trimethoxyphenyl)pyrimidine-2-amine] showed a chromatographic logP of 3.02. `Cc1nc(C(F)(F)F)c(-c2ccnc(Nc3cccc([N+](=O)[O-])c3)n2)s1` [Example 311, 4-[2-methyl-4-(trifluoromethyl)-1,3-thiazol-5-yl]-N-(3-nitrophenyl)pyrimidine-2-amine] showed a chromatographic logP of 3.5.

Same assay, conditions: HPLC, reversed-phase C 18, EEC Directive 79/831 Annex V.A8; method *: 40° C., 0.1% aqueous formic acid and acetonitrile, linear gradient 10% to 95% acetonitrile
For `Cc1nc2c(s1)-c1nc(Nc3ccc(O)cc3)ncc1CC2` [Example 281, 4-[(2-methyl-4,5-dihydro[1,3]thiazole[4,5-h]quinazolin-8-yl)amino]phenol], the logP was 1.41*. In the case of `COc1cc(Nc2nccc(-c3sc(N(C)C)nc3C(F)(F)F)n2)cc(OC)c1OC` [Example 291, 4-[2-(dimethylamine)-4-(trifluoromethyl)-1,3-thiazol-5-yl]-N-(3,4,5-trimethoxyphenyl)pyrimidine-2-amine], the logP was 3.43*. For `CN(C)c1nc(C(F)(F)F)c(-c2ccnc(Nc3ccccc3)n2)s1` [Example 292, 4-[2-(dimethylamine)-4-(trifluoromethyl)-1,3-thiazol-5-yl]-N-phenylpyrimidine-2-amine], the logP was 3.88*. In the case of `COc1cccc(Nc2nccc(-c3sc(N(C)C)nc3C)n2)c1` [Example 293, 4-[2-(dimethylamine)-4-methyl-1,3-thiazol-5-yl]-N-(3-methoxyphenyl)pyrimidine-2-amine], the logP was 1.98*. For `Cc1cc(Nc2nccc(-c3sc(N(C)C)nc3C)n2)ccc1F` [Example 294, 4-[2-(dimethylamine)-4-methyl-1,3-thiazol-5-yl]-N-(4-fluoro-3-methylphenyl)pyrimidine-2-amine], the logP was 2.22*.

Same assay, conditions: logP(HCOOH), HCOOH
Work on `Cc1nc(C2CCCCC2)sc1-c1ccnc(Nc2cccc([N+](=O)[O-])c2)n1` [Example 216, 4-(2-cyclohexyl-4-methyl-1,3-thiazol-5-yl)-N-(3-nitrophenyl)pyrimidine-2-amine] yielded a chromatographic logP of 4.63.
